Test results reported in patent publication US11440923B2, “Substituted macrocyclic indole derivatives” (Bayer Aktiengesellschaft, priority 2017, dated 2022).
Structures can show the parent of a compound that is named as a salt. Where two headings read alike, the source gives them in different places.

Key:
DMS-114 cells = test: Antiproliferation assay DMS-114 (Assay 7); type: cell-based; conditions: Homo sapiens, read-out: Antiproli DM-S114 IC50 median
Procedure: (§1) Assessment of the Anti-Proliferative Effect of Compounds in Different Cell Lines
(§2) The impact of compounds on the proliferation of different cell lines was assessed using the CellTiter-Glo® Luminescent Cell Viability reagent from Promega (G7573).
(§3) In parallel, cells were plated in a reference (day 0) plate for time zero determination. Cells were incubated in a humidified incubator at 37° C. overnight.
(§4) Rim wells were excluded. The cells were incubated for 72 h hours in a humidified incubator at 37° C. The day 0 plate was measured by adding 30 μL/well of CTG solution (CellTiter-Glo® Luminescent Cell Viability reagent, Promega G7573) to time zero wells in the reference plate followed by a 10 minutes incubation and luminescence reading at 0.1 ms. using the PHERAstar FS microplate reader (BMG Labtech).
(§5) After 72 h incubation, the treated plates were measured in the same way as the day 0 plate mentioned above. The Bella DRC Master Sheet was used to calculate IC50s, with CI=day 0 values and C0=DMSO control values.

[1] = biological target: MCL1 protein / biotinylated BIM BH3 peptide in RKO cells (Homo sapiens (Human), UniProt Q07820); test: PIxEL: protein-protein interaction in permeabilized cells by ELISA (Assay 5); type: cell-based; conditions: PIxEL IC50 (median)
Procedure: PIxEL: Protein-Protein Interaction in Permeabilized Cells by ELISA
Most MCL1 protein molecules are localized at the mitochondria outer membrane and sequester pro-apoptotic proteins through binding of their BCL2 homology domain 3 (BH3 domain). MEB buffer (150 mM mannitol, 10 mM HEPES pH 7.5, 50 mM KCl, 20 μM EDTA, 20 μM EGTA, 5 mM potassium succinate, 0.1% protease-free BSA (SIGMA) with low dose digitonin (0.002%) permeabilizes plasma membrane while leaves live mitochondria, where MCL1 maintains its native localization and conformation. Unlike biophysical assays (e.g. TR-FRET) that use truncated recombinant MCL1 protein, this assay uses full length endogenous MCL1 protein at mitochondria outer membrane. It measures the interaction between MCL1 protein and biotinylated BIM BH3 peptide. Compounds can compete with BIM BH3 peptide to bind to MCL1 protein.
On day 1, RKO colon cancer cell line cells were plated at 0.8 million cells/ml, 100 μl/well in 96-well flat bottom TC plates (Corning). MCL1 antibody (Santa Cruz sc-12756) were diluted at 200 fold (final concentration 1 μg/ml) in carbonate buffer (Thermo Fisher Scientific, pH 9.6), and 50 μl of diluted antibody was added to each well of high bind ELISA plates ([…]). Each plate was tapped to make sure liquid covering entire bottom of wells and incubate at 37° C. overnight.
On the second day, MCL1 antibody was washed from ELISA plate. 250 μl Odyssey® Blocking Buffer (PBS) (Li-Cor) was added to each well, incubated at room temperature for at least 1 hour, then washed once with 250 μl 1×PBST. Plates with RKO cells were gently washed once with 100 μl/well PBS, once with 100 μl/well MEB buffer without digitonin, then 100 μl of MEB buffer with 0.002% digitonin was gently added to each well. Compounds were added with HP Tecan compound dispenser in 3-fold dilution series, highest dose 30 μM, 10-dose per compound in quadruplicates. Biotin-BIM peptide (synthesized by 21st Century) was added with HP Tecan compound dispenser at 0.2 μM immediately after the addition of compounds. Plates were rocked for 1 hour at room temperature. Then MEB buffer was aspirated and 50 μl of CHAPS buffer (50 mM Tris-Cl, pH 7.4, 150 mM NaCl, 1% CHAPS, 1 mM EDTA, 1 mM EGTA, cOmplete protease inhibitors (Roche), PhosSTOP (Roche)) was added to each well. Plates were rocked for 1 hour at 4° C., then 45 μl cell lysate from each well were transferred to ELISA plates coated with MCL1 antibody. Plates were incubated overnight in the cold room with rocking.
On the third day, ELISA plates were washed once with 250 μl 1×PBST. Streptavidin-poly-HRP (Thermo Fisher Scientific) was diluted to 20 ng/ml in Odyssey blocking buffer plus 0.05% Triton-100, and 100 μl was added to each well of the ELISA plate. Plates were incubated at room temperature for 1 hour with rocking, then washed with 100 μl 1×PBST for 3 times. Each SuperSignal ELISA Femto Maximum Sensitivity substrate was added to a 50-ml tube and mixed, then 100 μl of mixed substrate was added to each well. Plates were shaken for 1 minute then luminescence was measured by Envision plate reader […]. Signal of each well were normalized by no-compound control and no-cell control. IC50 was calculated using Graphic Pad PRISM software.

MCL-1 = MCL-1 (Homo sapiens (Human), UniProt Q07820, K194A/K197A/R201A); test: Protein-compound interaction assay (SPR assay, Assay 9); type: binding; conditions: for Kd: KD (geometric mean); for koff: read-out: koff (geometric mean), SPR, 25° C.; for kon: read-out: kon (geometric mean), SPR, 25° C.
Description: Assay 9 Protein-Compound Interaction Assay (SPR Assay)
The ability of the compounds described in this invention to bind to MCL-1 may be determined using surface plasmon resonance (SPR). This allows for the quantification of binding in terms of the equilibrium dissociation constant (KD [M]), as well as association and dissociation rate constants (kon [1/Ms] and koff [1/s], respectively). The measurements may be performed using Biacore® T200 or Biacore® S200 instruments (GE Healthcare).
Briefly, carboxymethylated dextran biosensor chips (Series S Sensor Chip CMS, GE Healthcare) were activated with 1-ethyl-3-(3-dimethylaminopropyl)-carbodiimide hydrochloride (EDC) and N-hydroxysuccinimide (NHS) according to the supplier's instructions. MBP-MCL-1 was diluted in 1×PBS-P+ (GE Healthcare) and injected on the activated chip surface. Subsequently, a solution of 1 M ethanolamine-HCl (GE Healthcare) was injected to block unreacted groups, resulting in approximately 400-2500 response units (RU) of immobilized protein. A reference surface was generated by treatment with NHS-EDC and ethanolamine-HCl. […] Compounds were injected for 60 s followed by a dissociation time of up to 1000 s.
The double-referenced sensorgrams were fit to a simple reversible Langmuir 1:1 reaction mechanism as implemented in the Biacore® T200 and S200 evaluation software (T200 evaluation software version 2.0 and S200 evaluation software version 1.0, GE Healthcare).

SNU-389 cells = test: Antiproliferation assay SNU-389 (Assay 7); type: cell-based; conditions: 72 h, read-out: Antiproli SNU-389 IC50
How it was run: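 Cells were plated overnight at 37° C, then compound-treated for 72 h. Viability was measured by CellTiter-Glo luminescence.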

MV-4-11 cells = test: Antiproliferation assay MV-4-11 (Assay 7); type: cell-based
Procedure: as §1, §2, §3, §4, §5

[2] = Homo sapiens, MV4-11, 72 h, CellTiter-Glo, read-out: Antiproli MV-4-11 IC50 median

Sequence of MCL1 protein / biotinylated BIM BH3 peptide in RKO cells (Q07820 whole entry): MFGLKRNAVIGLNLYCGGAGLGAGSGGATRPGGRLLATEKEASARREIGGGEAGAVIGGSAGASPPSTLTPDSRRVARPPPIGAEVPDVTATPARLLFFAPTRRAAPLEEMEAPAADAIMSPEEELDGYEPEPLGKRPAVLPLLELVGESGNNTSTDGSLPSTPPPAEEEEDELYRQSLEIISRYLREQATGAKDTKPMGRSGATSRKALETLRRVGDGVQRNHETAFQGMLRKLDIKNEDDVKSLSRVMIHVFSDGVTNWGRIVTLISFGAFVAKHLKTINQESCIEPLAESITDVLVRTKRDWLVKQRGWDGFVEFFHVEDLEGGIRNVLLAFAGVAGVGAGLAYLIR
Sequence of MCL-1 (Q07820 whole entry K194A/K197A/R201A, looked up): as the sequence (Q07820 whole entry) above, with K194A, K197A, R201A counted along it

CCc1c2c(nn1C)C(CCOC)OCCCCn1c(C(=O)O)c(CCCOc3cccc4cc(F)ccc34)c3ccc(Cl)c-2c31 (single isomer, unassigned; enantiomer 1) [Example 42, (+)-4-chloro-3-ethyl-7-{3-[(6-fluoronaphthalen-1-yl)oxy]propyl}-15-(2-methoxyethyl)-2-methyl-2,10,11,12,13,15-hexahydropyrazolo[4′,3′:9,10][1,6]oxazacycloundecino[8,7,6-hi]indole-8-carboxylic Acid—N-ethylethanamine Salt (Enantiomer 1)]
IC50 (DMS-114 cells; DMS-114, 72 h): 156 nM
IC50 [1]: 45.1 nM
Kd (MCL-1; SPR, 25° C.): 2.8 nM
koff (MCL-1): 0.0032 s⁻¹
kon (MCL-1): 1.2e+06 M⁻¹ s⁻¹
IC50 (SNU-389 cells): 270 nM

Cc1c2c(nn1C)C(CCO)OCCCCn1c(C(=O)O)c(CCCOc3cccc4ccccc34)c3ccc(Cl)c-2c31 (single isomer, unassigned; enantiomer 1) [Example 31, (+)-4-chloro-15-(2-hydroxyethyl)-2,3-dimethyl-7-{3-[(naphthalen-1-yl)oxy]propyl}-2,10,11,12,13,15-hexahydropyrazolo[4′,3′:9,10][1,6]oxazacycloundecino[8,7,6-hi]indole-8-carboxylic Acid (Enantiomer 1)]
IC50 [1]: 481 nM
Kd (MCL-1; SPR, 25° C.): 1.8 nM
koff (MCL-1): 0.008 s⁻¹
kon (MCL-1): 4.4e+06 M⁻¹ s⁻¹

CCc1c2c(nn1C)C(CCO)OCCCCn1c(C(=O)O)c(CCCOc3cccc4cc(F)ccc34)c3ccc(Cl)c-2c31 (single isomer, unassigned; enantiomer 1) [Example 45, (+)-4-chloro-3-ethyl-7-{3-[(6-fluoronaphthalen-1-yl)oxy]propyl}-15-(2-hydroxyethyl)-2-methyl-2,10,11,12,13,15-hexahydropyrazolo[4′,3′:9,10][1,6]oxazacycloundecino[8,7,6-hi]indole-8-carboxylic Acid (Enantiomer 1)]
IC50 (DMS-114 cells; DMS-114 cells, 72 h, CellTiter-Glo): 298 nM
IC50 [1]: 155 nM
Kd (MCL-1; SPR, 25° C.): 2.3 nM
koff (MCL-1): 0.0068 s⁻¹
kon (MCL-1): 3e+06 M⁻¹ s⁻¹
IC50 (SNU-389 cells; CellTiter-Glo): 350 nM

Cc1c2c(nn1C)C(CCN1CCOCC1)OCCCCn1c(C(=O)O)c(CCCOc3cccc4cc(F)ccc34)c3ccc(F)c-2c31 (racemic) [Example 19, (rac)-4-fluoro-7-{3-[(6-fluoronaphthalen-1-yl)oxy]propyl}-2,3-dimethyl-15-[2-(morpholin-4-yl)ethyl]-2,10,11,12,13,15-hexahydropyrazolo[4′,3′:9,10][1,6]oxazacycloundecino[8,7,6-hi]indole-8-carboxylic Acid]
IC50 (MV-4-11 cells; [2]): 140 nM

CCc1c2c(nn1C)C(CCN1CCOCC1)OCCCCn1c(C(=O)O)c(CCCOc3cccc4ccccc34)c3ccc(F)c-2c31 (single isomer, unassigned; enantiomer 2) [Example 12, 3-ethyl-4-fluoro-2-methyl-15-[2-(morpholin-4-yl)ethyl]-7-{3-[(naphthalen-1-yl)oxy]propyl}-2,10,11,12,13,15-hexahydropyrazolo[4′,3′:9,10][1,6]oxazacycloundecino[8,7,6-hi]indole-8-carboxylic Acid—N-ethylethanamine Salt (Enantiomer 2)]
IC50 [1]: 19400 nM
Kd (MCL-1; SPR, 25° C.): 22 nM
koff (geometric mean) (MCL-1; SPR, 25° C.): 3.4 E−3 1/s
kon (geometric mean) (MCL-1; SPR, 25° C.): 1.5 E5 1/M 1/s
IC50 (MV-4-11 cells; read-out: Antiproli MV-4-11 IC50 median; 72 h, CellTiter-Glo): 14400 nM

Cc1c2c(nn1C)C(CCN1CCOCC1)OCCCCn1c(C(=O)O)c(CCCOc3cccc4ccccc34)c3ccc(Cl)c-2c31 (single isomer, unassigned; enantiomer 2) [Example 15, 4-chloro-2,3-dimethyl-15-[2-(morpholin-4-yl)ethyl]-7-{3-[(naphthalen-1-yl)oxy]propyl}-2,10,11,12,13,15-hexahydropyrazolo[4′,3′:9,10][1,6]oxazacycloundecino[8,7,6-hi]indole-8-carboxylic Acid (Enantiomer 2)]
IC50 [1]: 12500 nM
IC50 (MV-4-11 cells; 72 h, CellTiter-Glo; read-out: Antiproli MV-4-11 IC50 median): 7840 nM

Cc1c2c(nn1C)C(CCN1CCOCC1)OCCCCn1c(C(=O)O)c(CCCOc3cccc4cc(F)ccc34)c3ccc(Cl)c-2c31 (single isomer, unassigned; enantiomer 1) [Example 17, 4-chloro-7-{3-[(6-fluoronaphthalen-1-yl)oxy]propyl}-2,3-dimethyl-15-[2-(morpholin-4-yl)ethyl]-2,10,11,12,13,15-hexahydropyrazolo[4′,3′:9,10][1,6]oxazacycloundecino[8,7,6-hi]indole-8-carboxylic Acid—N-ethylethanamine (Enantiomer 1)]
IC50 [1]: 35.7 nM
Kd (MCL-1; SPR, 25° C.): 0.77 nM
koff (MCL-1): 0.015 s⁻¹
kon (MCL-1): 2e+07 M⁻¹ s⁻¹

Cc1c2c(nn1C)C(CCN1CCOCC1)OCCCCn1c(C(=O)O)c(CCCOc3cccc4ccccc34)c3ccc(Cl)c-2c31 (racemic) [Example 13, (rac)-4-chloro-2,3-dimethyl-15-[2-(morpholin-4-yl)ethyl]-7-{3-[(naphthalen-1-yl)oxy]propyl}-2,10,11,12,13,15-hexahydropyrazolo[4′,3′:9,10][1,6]oxazacycloundecino[8,7,6-hi]indole-8-carboxylic Acid]
IC50 (MV-4-11 cells; [2]): 220 nM

CCC1OCCCCn2c(C(=O)O)c(CCCOc3cccc4ccccc34)c3ccc(Cl)c(c32)-c2c1nn(C)c2C (single isomer, unassigned; enantiomer 1) [Example 29, (+)-4-chloro-15-ethyl-2,3-dimethyl-7-{3-[(naphthalen-1-yl)oxy]propyl}-2,10,11,12,13,15-hexahydropyrazolo[4′,3′:9,10][1,6]oxazacycloundecino[8,7,6-hi]indole-8-carboxylic Acid—N-ethylethanamine Salt (Enantiomer 1)]
IC50 [1]: 1060 nM
Kd (MCL-1; SPR, 25° C.): 8.3 nM
koff (MCL-1): 0.014 s⁻¹
kon (MCL-1): 1.7e+06 M⁻¹ s⁻¹
